Data on one compound can be found in publication PMC2577671, “Evaluation of Dimebon in cellular model of Huntington's disease” (Molecular Neurodegeneration, 2008).

Data set [1] addresses T1, α2A-Adrenergic receptor (Homo sapiens, UniProt P08913).
T1 construct: gene ADRA2A
Put plainly: MDS Pharma Services binding screen at […].

Data set [2] deals with T2, Histamine H1 receptor (Homo sapiens, UniProt P35367).
T2 construct: gene HRH1
Put plainly: MDS Pharma Services binding screen at […].

Data set [3] has as its target T3, Serotonin 5-HT2c receptor (Homo sapiens, UniProt P28335).
T3 construct: gene HTR2C
Put plainly: MDS Pharma Services binding screen at […].

The target of data set [4] is T4, α1A-Adrenergic receptor (Rattus norvegicus, UniProt P43140).
T4 construct: gene Adra1a
Put plainly: MDS Pharma Services binding screen at […].

The target in data set [5] is T5, Histamine H2 receptor (Homo sapiens, UniProt P25021).
T5 construct: gene HRH2
Put plainly: MDS Pharma Services binding screen at […].

For data set [6], the target named is T6, Serotonin 5-HT6 receptor (Homo sapiens, UniProt P50406).
T6 construct: gene HTR6
Put plainly: MDS Pharma Services binding screen at […].

The target of data set [7] is T7, α1D-Adrenergic receptor (Homo sapiens, UniProt P25100).
T7 construct: gene ADRA1D
The data set can be described thus: MDS Pharma Services binding screen at […].

The target in data set [8] is T8, Adenosine A2A (Homo sapiens, UniProt P29274).
T8 construct: gene ADORA2A
Put plainly: biochemical. More on the design: MDS Pharma Lead Profiling screen, binding assays, per cent inhibition, duplicate. As for the experimental part:
(§1) The activity of Dimebon against selected set of biochemical targets was performed by MDS Pharma Services . The Dimebon was provided to MDS Pharma as dry powder, dissolved in DMSO and tested in 10 μM concentrations. The standard Lead Profiling + CYP450 screen was performed according to MDS Pharma specifications with additional custom-chosen targets added to the screen as indicated. To further understand potential mechanisms responsible for clinical effects of Dimebon, we evaluated Dimebon against a set of selected biochemical targets. Dimebon evaluation was performed by MDS Pharma Services . The standard Lead Profiling + CYP450 screen was performed with additional custom-selected targets added to the screen. The results of the screen obtained at 10 μM of Dimebon are provided as Additional File 3. […] Low affinity (50–60% inhibition) interactions were also observed for CYP450, 2C19 receptor, voltage-gated L-type Ca^2+ channel, Dopamine D4.2 receptor, and Serotonin 5-HT1 receptor. […] Supplementary file 1750-1326-3-15-S3.pdf: Additional file 3 The results of Dimebon screening against a selected set of biochemical targets. The complete results obtained by MDS Pharma with a selected list of biochemical targets using 10 μM of Dimebon as a probe. The Cat numbers refer to the MDS Pharma Services assay specification. The receptors and species are listed. Dimebon was tested at 10 μM concentratio in duplicate. The % inhibition by Dimebon is shown numerically and graphically for each receptor. Significant targets (defined as % inhibition > 50%) are highlighted in yellow. Click here for file

Data set [9] has as its target T9, Adrenergic beta1 (Homo sapiens, UniProt P08588).
T9 construct: gene ADRB1
Put plainly: biochemical. Details: MDS Pharma Lead Profiling screen, binding assays, per cent inhibition, duplicate. The method, then:
as §1

Data set [10] has as its target T10, Dopamine D1 (Homo sapiens, UniProt P21728).
T10 construct: gene DRD1
The data set can be described thus: biochemical. Details: MDS Pharma Lead Profiling screen, binding assays, per cent inhibition, duplicate. As for the experimental part: as §1

For data set [11], the target named is T11, G Protein-Coupled Receptor GPR103 (Homo sapiens, UniProt Q96P65).
T11 construct: gene QRFPR
Put plainly: biochemical. More on the design: MDS Pharma Lead Profiling screen, binding assays, per cent inhibition, duplicate. As for the experimental part: as §1

In data set [12] the target is T12, Melatonin MT1 (Homo sapiens, UniProt P48039).
T12 construct: gene MTNR1A
The data set can be described thus: biochemical. Details: MDS Pharma Lead Profiling screen, binding assays, per cent inhibition, duplicate. The method, then:
as §1

In data set [13] the target is T13, Neuropeptide Y Y2 (Homo sapiens, UniProt P49146).
T13 construct: gene NPY2R
Put plainly: biochemical. Details: MDS Pharma Lead Profiling screen, binding assays, per cent inhibition, duplicate. As for the experimental part: as §1

Data set [14] deals with T14, Serotonin 5-HT1A (Homo sapiens, UniProt P08908).
T14 construct: gene HTR1A
The data set can be described thus: biochemical. More on the design: MDS Pharma Lead Profiling screen, binding assays, per cent inhibition, duplicate. The method, then: as §1

Data set [15] has as its target T15, Sigma 1 (Homo sapiens, UniProt Q99720).
T15 construct: gene SIGMAR1
Put plainly: biochemical. More on the design: MDS Pharma Lead Profiling screen, binding assays, per cent inhibition, duplicate. The method, then: as §1

Data set [16] has as its target T16, Transporter, Dopamine (DAT) (Homo sapiens, UniProt Q01959).
T16 construct: gene SLC6A3
Put plainly: biochemical. Details: MDS Pharma Lead Profiling screen, binding assays, per cent inhibition, duplicate. The method, then: as §1

Data set [17] deals with T17, Potassium Channel hERG (Homo sapiens, UniProt Q12809).
T17 construct: gene KCNH2
The data set can be described thus: in vitro. More on the design: MDS Pharma Lead Profiling screen, binding assays, per cent inhibition, duplicate. The method, then:
as §1, with “Dimebon was tested at 10 μM concentratio in duplicate. The % inhibition by Dimebon is shown numerically and graphically for each receptor. Significant targets (defined as % inhibition > 50%) are highlighted in yellow. Click here for file” left out

The target of data set [18] is T18, CYP450, 1A2 (Homo sapiens, UniProt P05177).
T18 construct: gene CYP1A2
The data set can be described thus: in vitro. Details: MDS Pharma Lead Profiling + CYP450 screen, enzyme assays, per cent inhibition, duplicate. As for the experimental part: as §1

The target of data set [19] is T19, CYP450, 2C19 (Homo sapiens, UniProt P33261).
T19 construct: gene CYP2C19
The data set can be described thus: in vitro. More on the design: MDS Pharma Lead Profiling + CYP450 screen, enzyme assays, per cent inhibition, duplicate. The method, then:
as §1

Data set [20] deals with T20, CYP450, 2C9 (Homo sapiens, UniProt P11712).
T20 construct: gene CYP2C9
The data set can be described thus: in vitro. More on the design: MDS Pharma Lead Profiling + CYP450 screen, enzyme assays, per cent inhibition, duplicate. As for the experimental part:
as §1

Data set [21] deals with T21, CYP450, 2D6 (Homo sapiens, UniProt P10635).
T21 construct: gene CYP2D6
Put plainly: in vitro. More on the design: MDS Pharma Lead Profiling + CYP450 screen, enzyme assays, per cent inhibition, duplicate. As for the experimental part: as §1

For data set [22], the target named is T22, CYP450, 3A4 (Homo sapiens, UniProt P08684).
T22 construct: gene CYP3A4
Put plainly: in vitro. Details: MDS Pharma Lead Profiling + CYP450 screen, enzyme assays, per cent inhibition, duplicate. As for the experimental part:
as §1

T3 sequence (P28335 33-458): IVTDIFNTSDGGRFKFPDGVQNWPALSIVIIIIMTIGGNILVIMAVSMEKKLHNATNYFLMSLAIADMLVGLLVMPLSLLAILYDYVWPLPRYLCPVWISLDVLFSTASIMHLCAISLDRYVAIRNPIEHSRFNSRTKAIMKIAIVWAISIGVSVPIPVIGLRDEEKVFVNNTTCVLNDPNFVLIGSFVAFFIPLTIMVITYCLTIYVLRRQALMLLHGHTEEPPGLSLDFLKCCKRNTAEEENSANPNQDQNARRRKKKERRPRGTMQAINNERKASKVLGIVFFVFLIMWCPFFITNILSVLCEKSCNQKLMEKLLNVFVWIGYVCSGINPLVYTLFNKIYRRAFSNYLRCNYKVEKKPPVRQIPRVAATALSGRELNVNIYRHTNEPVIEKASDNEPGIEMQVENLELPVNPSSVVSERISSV
T15 sequence (Q99720 whole entry): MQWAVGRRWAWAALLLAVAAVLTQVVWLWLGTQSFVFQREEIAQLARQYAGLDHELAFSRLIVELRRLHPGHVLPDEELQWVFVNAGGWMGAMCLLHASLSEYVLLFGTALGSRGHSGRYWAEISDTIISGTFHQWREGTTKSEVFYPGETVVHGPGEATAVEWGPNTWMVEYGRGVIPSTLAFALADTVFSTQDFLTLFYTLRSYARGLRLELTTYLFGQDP
T6 sequence (P50406 whole entry): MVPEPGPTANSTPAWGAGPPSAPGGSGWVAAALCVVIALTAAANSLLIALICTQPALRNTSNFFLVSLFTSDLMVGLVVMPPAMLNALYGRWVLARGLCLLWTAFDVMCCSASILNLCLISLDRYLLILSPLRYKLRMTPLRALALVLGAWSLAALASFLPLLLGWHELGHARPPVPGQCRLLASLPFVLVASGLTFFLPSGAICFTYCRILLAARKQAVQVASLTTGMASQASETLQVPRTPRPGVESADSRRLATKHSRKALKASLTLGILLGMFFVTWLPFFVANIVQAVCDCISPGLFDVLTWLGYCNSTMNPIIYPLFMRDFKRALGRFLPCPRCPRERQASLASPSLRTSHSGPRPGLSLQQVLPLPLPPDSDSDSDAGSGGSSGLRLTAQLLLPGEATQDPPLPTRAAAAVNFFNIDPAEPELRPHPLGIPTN
T9 sequence (P08588 whole entry): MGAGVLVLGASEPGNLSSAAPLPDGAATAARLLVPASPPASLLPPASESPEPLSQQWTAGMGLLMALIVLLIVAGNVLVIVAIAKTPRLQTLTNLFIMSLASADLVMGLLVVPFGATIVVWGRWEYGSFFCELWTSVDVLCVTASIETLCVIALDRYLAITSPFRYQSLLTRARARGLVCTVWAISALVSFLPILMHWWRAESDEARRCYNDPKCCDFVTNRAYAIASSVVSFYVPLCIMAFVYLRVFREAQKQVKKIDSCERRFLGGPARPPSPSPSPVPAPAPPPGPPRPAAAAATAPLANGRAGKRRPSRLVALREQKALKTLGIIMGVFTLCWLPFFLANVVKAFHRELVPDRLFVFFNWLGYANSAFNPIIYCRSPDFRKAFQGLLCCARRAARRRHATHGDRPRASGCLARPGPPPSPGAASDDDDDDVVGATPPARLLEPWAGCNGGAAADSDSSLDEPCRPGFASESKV
T22 sequence (P08684 whole entry): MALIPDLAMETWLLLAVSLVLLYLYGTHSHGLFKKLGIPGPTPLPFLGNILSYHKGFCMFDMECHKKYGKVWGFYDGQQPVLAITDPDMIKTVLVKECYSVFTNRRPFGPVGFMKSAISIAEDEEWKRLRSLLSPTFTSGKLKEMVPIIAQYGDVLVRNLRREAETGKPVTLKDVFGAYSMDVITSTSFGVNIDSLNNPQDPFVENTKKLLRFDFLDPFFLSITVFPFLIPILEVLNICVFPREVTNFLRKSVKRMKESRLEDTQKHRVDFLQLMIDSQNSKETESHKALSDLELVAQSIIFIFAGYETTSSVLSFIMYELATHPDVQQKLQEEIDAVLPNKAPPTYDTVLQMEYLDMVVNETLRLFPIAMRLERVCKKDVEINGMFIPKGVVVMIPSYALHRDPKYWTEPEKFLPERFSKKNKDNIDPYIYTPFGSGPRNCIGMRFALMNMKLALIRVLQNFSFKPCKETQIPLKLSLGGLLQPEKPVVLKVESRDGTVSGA
T17 sequence (Q12809 whole entry): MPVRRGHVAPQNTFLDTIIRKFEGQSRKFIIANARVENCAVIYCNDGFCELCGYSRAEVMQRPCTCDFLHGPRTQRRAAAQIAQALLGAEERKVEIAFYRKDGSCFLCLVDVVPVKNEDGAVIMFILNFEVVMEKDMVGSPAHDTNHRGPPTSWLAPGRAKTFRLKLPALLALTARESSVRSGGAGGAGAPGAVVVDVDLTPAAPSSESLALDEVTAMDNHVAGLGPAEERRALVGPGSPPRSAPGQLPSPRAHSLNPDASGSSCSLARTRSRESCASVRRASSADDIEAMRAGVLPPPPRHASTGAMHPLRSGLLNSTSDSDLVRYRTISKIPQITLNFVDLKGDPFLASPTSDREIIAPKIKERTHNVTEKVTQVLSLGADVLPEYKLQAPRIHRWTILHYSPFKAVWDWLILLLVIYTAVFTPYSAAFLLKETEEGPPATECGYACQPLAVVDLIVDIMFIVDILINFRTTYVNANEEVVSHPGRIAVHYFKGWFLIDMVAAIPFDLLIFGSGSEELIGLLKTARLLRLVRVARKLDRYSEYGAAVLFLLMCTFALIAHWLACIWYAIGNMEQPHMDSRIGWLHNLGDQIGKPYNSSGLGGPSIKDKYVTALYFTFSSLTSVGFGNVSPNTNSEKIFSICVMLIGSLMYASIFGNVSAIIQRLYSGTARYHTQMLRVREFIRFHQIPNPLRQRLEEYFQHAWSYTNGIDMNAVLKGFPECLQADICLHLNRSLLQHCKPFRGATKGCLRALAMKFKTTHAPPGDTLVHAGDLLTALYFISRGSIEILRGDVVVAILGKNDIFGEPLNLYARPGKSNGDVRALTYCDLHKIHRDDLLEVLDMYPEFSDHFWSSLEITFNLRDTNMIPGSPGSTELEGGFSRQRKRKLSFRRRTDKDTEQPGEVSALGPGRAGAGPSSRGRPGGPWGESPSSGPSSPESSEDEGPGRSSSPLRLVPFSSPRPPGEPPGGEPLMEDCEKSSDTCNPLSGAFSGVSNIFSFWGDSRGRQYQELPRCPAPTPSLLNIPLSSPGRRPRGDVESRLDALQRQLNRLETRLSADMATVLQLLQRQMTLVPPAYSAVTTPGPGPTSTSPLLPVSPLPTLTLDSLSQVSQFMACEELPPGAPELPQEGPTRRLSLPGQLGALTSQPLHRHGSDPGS
T14 sequence (P08908 whole entry): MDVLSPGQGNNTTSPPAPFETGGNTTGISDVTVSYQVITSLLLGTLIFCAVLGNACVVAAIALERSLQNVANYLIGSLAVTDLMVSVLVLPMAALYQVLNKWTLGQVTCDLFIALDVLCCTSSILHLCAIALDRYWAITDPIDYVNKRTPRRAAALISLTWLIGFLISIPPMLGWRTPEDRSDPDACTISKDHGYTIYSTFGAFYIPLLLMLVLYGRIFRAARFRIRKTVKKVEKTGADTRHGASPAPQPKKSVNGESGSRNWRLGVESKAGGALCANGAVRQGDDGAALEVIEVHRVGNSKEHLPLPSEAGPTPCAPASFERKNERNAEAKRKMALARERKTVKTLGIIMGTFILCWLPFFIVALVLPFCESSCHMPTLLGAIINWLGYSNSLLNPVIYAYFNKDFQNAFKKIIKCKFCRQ
T18 sequence (P05177 whole entry): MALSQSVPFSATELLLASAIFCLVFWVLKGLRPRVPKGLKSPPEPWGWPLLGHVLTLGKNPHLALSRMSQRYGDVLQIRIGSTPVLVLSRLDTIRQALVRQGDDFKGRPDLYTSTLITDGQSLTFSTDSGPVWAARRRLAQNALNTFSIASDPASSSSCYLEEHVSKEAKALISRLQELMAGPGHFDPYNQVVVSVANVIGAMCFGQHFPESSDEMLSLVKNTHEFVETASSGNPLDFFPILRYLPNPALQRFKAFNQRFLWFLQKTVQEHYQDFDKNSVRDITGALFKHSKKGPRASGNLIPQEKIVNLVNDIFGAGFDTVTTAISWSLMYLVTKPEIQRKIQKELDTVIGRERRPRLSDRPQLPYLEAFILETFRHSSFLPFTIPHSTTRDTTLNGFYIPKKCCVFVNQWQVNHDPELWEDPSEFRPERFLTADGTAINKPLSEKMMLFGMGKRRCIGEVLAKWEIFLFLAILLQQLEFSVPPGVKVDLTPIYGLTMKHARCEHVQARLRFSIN
T1 sequence (P08913 whole entry): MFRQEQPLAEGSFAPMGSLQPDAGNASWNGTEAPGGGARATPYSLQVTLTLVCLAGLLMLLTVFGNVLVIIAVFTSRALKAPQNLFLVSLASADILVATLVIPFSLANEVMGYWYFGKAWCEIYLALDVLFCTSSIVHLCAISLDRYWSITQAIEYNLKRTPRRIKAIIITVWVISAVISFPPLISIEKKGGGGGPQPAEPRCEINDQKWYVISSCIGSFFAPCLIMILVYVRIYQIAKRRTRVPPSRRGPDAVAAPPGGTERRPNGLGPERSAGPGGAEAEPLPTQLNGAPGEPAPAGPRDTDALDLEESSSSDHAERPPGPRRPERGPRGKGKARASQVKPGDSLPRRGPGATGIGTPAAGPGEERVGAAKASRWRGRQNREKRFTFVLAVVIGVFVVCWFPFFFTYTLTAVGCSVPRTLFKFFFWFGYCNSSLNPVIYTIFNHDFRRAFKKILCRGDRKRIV
T5 sequence (P25021 whole entry): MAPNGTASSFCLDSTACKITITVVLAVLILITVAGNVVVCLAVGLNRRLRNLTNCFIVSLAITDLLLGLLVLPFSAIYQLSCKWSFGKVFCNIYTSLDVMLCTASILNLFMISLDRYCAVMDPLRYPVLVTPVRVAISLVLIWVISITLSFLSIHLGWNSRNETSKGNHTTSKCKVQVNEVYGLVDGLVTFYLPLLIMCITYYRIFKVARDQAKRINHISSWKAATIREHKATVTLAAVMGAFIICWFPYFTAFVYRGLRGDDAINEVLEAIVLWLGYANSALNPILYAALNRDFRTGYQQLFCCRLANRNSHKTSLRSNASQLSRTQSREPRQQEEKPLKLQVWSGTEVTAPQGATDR

Turning to `Cc1ccc2c(c1)c1c(n2CCc2ccc(C)nc2)CCN(C)C1` [Dimebon, 2,3,4,5-Tetrahydro-2,8-dimethyl-5-(2-(6-methyl-3-pyridyl)ethyl)-1H-pyrido(4,3-b)indole], the inhibition at 10 µM in data set [1], in data set [2], in data set [3], in data set [4], in data set [5] and in data set [6] was > 90% in each case. Besides, the inhibition at 10 µM in data set [7] was > 90%; in data set [8], -3%; in data set [9] it was -7%; in [10], 70%; in data set [11] it was 4%; in data set [12] it was 3%. The inhibition at 10 µM in [13] is -5%; in data set [14], 22%; in data set [15], 28%; in data set [16] it was 13%; in data set [17] it was 45%; in [18], 5%. Also, the inhibition at 10 µM turned out to be 55% in [19], 2% in data set [20], 16% in [21] and 22% in data set [22].
